Reference: patent US20190117637A1 (priority 2016, published 2019)

Columns and labels:
rats [1] = details: rat, in vivo
rats [2] = details: rat; pretreatment quetiapine 10 mg/kg i.p.; heroin 0.032 mg/kg/infusion i.v., five lever presses per infusion; FIG. 2

Compound | average tail flick latency (rats [1]) | median tail flick latency (rats [1]) | self-administration (reinforcing effect) of heroin (rats [2])
COc1ccc2c3c1O[C@H]1C(=O)CC[C@@]4(O)[C@@H](C2)N(C)CC[C@]314 [oxycodone] | about 7.3 seconds | ~5.8 s | 
OCCOCCN1CCN(C2=Nc3ccccc3Sc3ccccc32)CC1 [quetiapine] |  |  | decreased
